Here are results for two compounds from US20040029843A1, “Rapidly disintegrating formulations for treating or preventing mucositis” (OraPharma, Inc., priority 2002, published 2004).

In this test the test system is mucositis induced by acute radiation exposure of the cheek pouch. As to the kind of experiment: Hamster cheek pouch model of radiation-induced oral mucositis, clinical scoring 0-5. As to conditions: 0.1 ml of 0.1 mg/ml aqueous solution topically three times a day for 22 days; for reduction in the number of animal days with scores of 3 or more relative to the control group: 35 Gy on day 0; for mucositis scores versus placebo control group: 35 Gy on day 0, visual score 0-5. The test is classed as in vivo, Hamsters. As to the method:
Hamsters were randomly assigned to treatment groups with eight (8) animals per group. Each group was treated either with a drug solution or a control, water.
Animals were dosed three times a day for 22 days. The first dose was applied on day -1. Either a solution of the drug or water alone was applied in a volume of 0.1 ml three times per day.
Mucositis was induced by acute radiation exposure of the check pouch. A single dose of radiation (35 Gy/dose) was administered to all animals on Day 0. Prior to irradiation, animals were anesthetized with an intraperiotoneal injection of sodium pentobarbital (80 mg/kg) and the left buccal pouch was everted, fixed and isolated using a lead shield.
Beginning on day 6 and continuing every other day up to day 28, the cheek pouch was photographed. On days that photographs were taken, prior to the first dosing of the day, the animals were anesthetized using an inhalation anesthetic and the left cheek pouch of each animal was rinsed vigorously with sterile water to remove residual food debris or foreign contamination and blotted dry with a gauze sponge. The appearance of the cheek pouch was scored visually by comparison to a validated photographic scale, ranging from 0 for normal to 5 for severe ulceration (clinical scoring). In descriptive terms, this scale is defined as follows: […]
0 Pouch completely healthy. No erythema or vasodilatation
1 Light to […] erythema and vasodilatation. No erosion of mucosa
2 Severe erythema and vasodilatation. Erosion of superficial aspects of mucosa leaving denuded areas. Decreased stippling of mucosa
3 Formation of off-white ulcers in one or more places. Ulcers may have a yellow/gray color due to pseudomembrane formation. Cumulative size of ulcers up to ¼ of the pouch surface. Severe erythema and vasodilatation
4 Cumulative size of ulcers ¼ to ½ of the pouch surface. Loss of pliability. Severe erythema and vasodilatation
5 Virtually all of pouch is ulcerated. Loss of pliability (pouch can only partially be extracted from mouth).
A score of 1-2 represents mild stage of the disease, whereas a score of 3-5 indicates moderate to severe mucositis.

Structures can show the parent of a compound that is named as a salt.

As to `CN(C)[C@@H]1C(O)=C(C(N)=O)C(=O)[C@@]2(O)C(O)=C3C(=O)c4c(O)cccc4[C@@](C)(O)[C@H]3C[C@@H]12` [tetracycline hydrochloride], the “reduction in the number of animal days with scores of 3 or more relative to the control group” value was “more than 75%” and the “mucositis scores versus placebo control group” value was “Significantly lower scores”.

As for meclocycline sulfosalicylate, the “reduction in the number of animal days with scores of 3 or more relative to the control group” value is reported as “more than 75%” and the “mucositis scores versus placebo control group” value is “Significantly lower scores”.
